This is an account of results in patent US8293529B2, “Method for inducing differentiation of pluripotent stem cells into cardiomyocytes” (Daiichi Sankyo Company, Limited, priority 2006, dated 2012).

Experiment [1] has as its system mouse ES cells. The settings on record: added for 3 days after initiation of differentiation induction (Naito et al.); cited from earlier work.
Experiment [2] has as its system mouse ES cells. In words: Appearance rate of EBs exhibiting spontaneous beating. The class given is cell-based. How it is done:
Culture for inducing differentiation of ES cells into cardiomyocytes or neurons was accomplished in a routine manner as follows. ES cells were suspended in LIF-free medium, and the resulting suspension was seeded at 500 cells/50 μL per well of a commercially available 96-well culture plate for spheroid formation (Sumilon Celltight Spheroid; Sumitomo Bakelite Co., Ltd., Japan).
In the early stage of differentiation in ES cells, transient elevations in expression of various Wnt genes were observed prior to the appearance of cardiomyocytes. Then, ES cells at this stage were treated with recombinant Wnt proteins to study the myocardial differentiation-inducing effect of the proteins. Induction of ES cell differentiation was accomplished in the same manner as used in Example 1, except that some of the experimental groups were cultured in medium containing a commercially available recombinant WNT-1 (Peprotech), Wnt-3a (R&D systems) or Wnt-5a (R&D systems) protein. Treatment of ES cells in medium supplemented with a recombinant protein of canonical Wnt such as WNT-1 is hereinafter referred to as “Wnt treatment.”
The above canonical Wnt protein treatment is known to inhibit the action of GSK3β within cells and thereby promote stabilization of β-catenin and its transcription activation ability. Then, further studies were performed to confirm that treatment with various drugs capable of promoting stabilization of β-catenin and its transcription activation ability produced a myocardial differentiation-inducing effect on ES cells, as in the case of Wnt treatment. As drugs capable of promoting stabilization of β-catenin and its transcription activation ability, the following five commercially available compounds were used: GSK3β inhibitors BIO (Calbiochem), GSK3β inhibitor VII (Calbiochem), cell-permeable GSK3β peptide inhibitor (L803-mts; Calbiochem) and SB216763 (Biomol), as well as a Wnt agonist (Calbiochem) that promotes the transcription activation ability of β-catenin without GSK3β inhibition. ES cells were induced to differentiate in the same manner as used in the above Examples, and cultured in medium containing the above compounds during the time period between 48 and 120 hours ([…]) after induction of differentiation, as in the case of recombinant Wnt proteins.

Experiment [3] deals with cmES cells. In words: Immunohistochemical staining of marker proteins in EBs from cmES cells. Format: cell-based, common marmoset. The settings on record: EBs at 16 days after induction of differentiation. How it is done:
Subsequently, immunohistochemical staining was performed in the same manner as used in Example 2 to confirm that beating cells developed in EBs from the Wnt-treated groups were cardiomyocytes producing specific marker proteins. From EBs in the Wnt-treated groups (Wnt-3a, WNT-1) at 16 days after induction of differentiation, frozen sections were prepared and reacted with anti-sarcomeric myosin antibody, anti-GATA-4 antibody or anti-Nkx-2.5 antibody as a primary antibody. After color reaction, these sections were observed under an optical microscope.

Experiment [4] has as its system cmES cells. Nature of the experiment: Marker gene expression in EBs from cmES cells (RT-PCR). The class given is cell-based, common marmoset. The settings on record: EBs at 10 days after induction; vs untreated group. How it is done:
The EBs thus prepared were collected periodically, and total RNA was prepared with an RNeasy mini kit (Qiagen). cDNA was then synthesized with reverse transcriptase and analyzed by PCR to detect expression of common marmoset Wnt-3 gene (cmWnt-3) and β-actin (cmβActin) serving as an endogenous control. The primers used for detection are as shown below.
Moreover, for analysis of expressed genes, EBs were collected at 10 days after induction of differentiation to detect expression of various marker genes in the same manner as used in Example 5. The primers used for detection of common marmoset Nestin, ANP, MLC-2a and MLC-2v transcripts (hereinafter referred to as cmNestin, cmANP, cmMLC-2a and cmMLC-2v, respectively) are as shown below.

For Wnt-3a, the “effect on myocardial differentiation from ES cells” value in the experiment on mouse ES cells [1] is reported as “promote myocardial differentiation from ES cells”. In addition, the “occurrence of beating EBs” value in the experiment on mouse ES cells [2] (Wnt proteins added at 10 ng/mL to 50 ng/mL) is on record as “very good occurrence of beating EBs”. Also, the “appearance rate of beating EBs” value in the experiment on mouse ES cells [2] (recombinant protein added at 1 ng/mL to 100 ng/mL) was “significantly higher than in the untreated group”. Besides, the “promoting effect on differentiation” value in the experiment on mouse ES cells [2] (similar studies by the applicant, added for 3 days after initiation of induction (Example 2)) is given as “no significant promoting effect on differentiation”. The “cells positive for sarcomeric myosin, GATA-4 and Nkx-2.5” value in the experiment on cmES cells [3] is given as “the great majority of EB-constituting cells were found to be positive”. The “expression of cardiomyocyte marker genes cmANP, cmMLC-2a and cmMLC-2v” value with cmES cells [4] is given as “significantly stronger expression”.
